Like-named read-outs stand apart in the source and are kept apart here.
How the values were obtained:
[1] = biological target: recombinant human IL-17AA (Homo sapiens, UniProt Q16552); assay: IL-6 release from NHDF cells, IL-17AA plus TNF-α stimulation; type: cell-based; conditions: 24 hours, IL-6 by ELISA
Method in brief: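 ELISA measured IL-6 in supernatants after 24 h at 37° C of NHDF cells with a compound/cytokine cocktail, pre-mixed 30 min at room temperature. Duplicates; 0.1% DMSO or 20% plasma final. IC50 from IL-6 remaining after subtracting the TNF-α-alone signal.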

[2] = biological target: biotinylated human IL-17A / AF647-labeled human IL-17RA (Homo sapiens, UniProt Q16552); assay: Human IL-17A×IL-17RA TR-FRET assay; type: binding
Sequence of biotinylated human IL-17A / AF647-labeled human IL-17RA (Q16552 24-155): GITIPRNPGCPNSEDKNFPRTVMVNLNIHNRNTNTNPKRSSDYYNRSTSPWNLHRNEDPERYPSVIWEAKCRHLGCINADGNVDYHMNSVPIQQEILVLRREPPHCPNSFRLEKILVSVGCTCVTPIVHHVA
Method in brief: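 Compounds tested in duplicate at each concentration; neutral controls contain all components with DMSO in place of compound.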

[3] = NHDF cells, IL-17AA 30 pM + TNF-α 6 pM, read-out: IL17AA + TNF IC50 IL-6
[4] = TR-FRET, 5 nM IL-17A, 30 nM IL-17RA, read-out: IL17AA FRET/ IL17Rawt IC50
[5] = NHDF cells, IL-17AA 30 pM plus TNF-α 6 pM, read-out: IL17AA + TNF IC50 IL-6
[6] = TR-FRET, biotinylated human IL-17A 5 nM, AF647-labeled human IL-17RA 30 nM, read-out: IL17AA FRET/ IL17Rawt IC50
[7] = IL17AA + TNF IC50 IL-6, NHDF cells, IL-17AA 30 pM + TNF-α 6 pM
[8] = IL17AA FRET/ IL17Rawt IC50, TR-FRET, 5 nM IL-17A, 30 nM IL-17RA

Sequence of recombinant human IL-17AA (Q16552 24-155): as above

Row | SMILES | IC50 [1, 5] [nM] | IC50 [2, 6] [nM] | also measured
1 | Cc1cc[n+]([O-])c(C)c1-c1ccc(NC(=O)[C@@H](NC(=O)c2ccc3n2CCNC3)C2CCCCCC2)cc1 [Example 202, (S)-3-(4-(2-cycloheptyl-2-(1,2,3,4-tetrahydropyrrolo[1,2-a]pyrazine-6-carboxamido)acetamido)phenyl)-2,4-dimethylpyridine 1-oxide] | – | – | IC50 [1, 3]: 73 nM; IC50 [2, 4]: 257 nM
2 | CCc1nocc1C(=O)N[C@H](C(=O)Nc1ccc(-c2c(C(F)(F)F)cc[n+]([O-])c2C)cc1)[C@H]1CCCC(F)(F)C1 [Example 26, 3-(4-((S)-2-((S)-3,3-difluorocyclohexyl)-2-(3-ethylisoxazole-4-carboxamido)acetamido)phenyl)-2-methyl-4-(trifluoromethyl)pyridine 1-oxide] | 14 | 44 | –
3 | Cc1cc[n+]([O-])c(C)c1-c1ccc(NC(=O)C(NC(=O)c2ccnn2C)C2CCC(C)CC2)cc1 [Example 3, 2,4-dimethyl-3-(4-((S)-2-(1-methyl-1H-pyrazole-5-carboxamido)-2-((1r,4S)-4-methylcyclohexyl)acetamido)phenyl)pyridine 1-oxide] | 7 | 24 | –
4 | Cc1cc[n+]([O-])c(C)c1-c1ccc(NC(=O)C(NC(=O)c2ccc3n2CCN(C)C3)C2CC3CC3C2)cc1 (single isomer, unassigned) [Example 192] | – | – | IC50 [1, 3]: 142 nM; IC50 [2, 4]: 151 nM
5 | Cc1cc[n+]([O-])c(C)c1-c1ccc(NC(=O)C(NC(=O)c2conc2C)C(C)c2ccccc2Cl)cc1 (centres unmarked) [Example 221, 3-(4-(3-(2-chlorophenyl)-2-(3-methylisoxazole-4-carboxamido)butanamido)phenyl)-2,4-dimethylpyridine 1-oxide] | – | – | IC50 [1, 3]: 264 nM; IC50 [2, 4]: 71.9 nM
6 | Cc1nocc1C(=O)N[C@H](C(=O)Nc1ccc(-c2c(Cl)cc[n+]([O-])c2C)c(F)c1)C1CCCCC1 [Example 14, 4-chloro-3-(4-((S)-2-cyclohexyl-2-(3-methylisoxazole-4-carboxamido)acetamido)-2-fluorophenyl)-2-methylpyridine 1-oxide] | 9 | 24 | –
7 | Cc1cc[n+]([O-])c(C)c1-c1ccc(NC(=O)[C@H](Cc2ccccc2Cl)NC(=O)c2conc2C)cc1 [Example 38, (S)-3-(4-(3-(2-chlorophenyl)-2-(3-methylisoxazole-4-carboxamido)propanamido)phenyl)-2,4-dimethylpyridine 1-oxide] | 131 | 17 | –
8 | CCc1nocc1C(=O)N[C@H](C(=O)Nc1ccc(-c2c(C)cc[n+]([O-])c2C)cc1)C1CCC(F)(F)C1 (mixture of isomers) [Example 86, 3-(4-((2S)-2-(3,3-difluorocyclopentyl)-2-(3-ethylisoxazole-4-carboxamido)acetamido)phenyl)-2,4-dimethylpyridine 1-oxide] | 232 | 119 | –
9 | Cc1c(-c2ccc(NC(=O)[C@@H](NC(=O)c3ccc4n3CCN(C)C4)C3CCCCCC3)cc2F)c(Cl)cc[n+]1[O-] [Example 122, 4-chloro-3-(4-((S)-2-cycloheptyl-2-(2-methyl-1,2,3,4-tetrahydropyrrolo[1,2-a]pyrazine-6-carboxamido)acetamido)-2-fluorophenyl)-2-methylpyridine 1-oxide] | 9 | 128 | –
10 | Cc1c(-c2ccc(NC(=O)[C@@H](NC(=O)c3ccnn3C)C3CCCCC3)cc2F)c(C(F)(F)F)cc[n+]1[O-] [Example 66, 3-(4-((S)-2-cyclohexyl-2-(1-methyl-1H-pyrazole-5-carboxamido)acetamido)-2-fluorophenyl)-2-methyl-4-(trifluoromethyl)pyridine 1-oxide] | 4 | 18 | –
11 | Cc1cc[n+]([O-])c(C)c1-c1ccc(NC(=O)[C@@H](NC(=O)c2ccnn2C(C)C)C2CCCCCC2)cc1 [Example 40, (S)-3-(4-(2-cycloheptyl-2-(1-isopropyl-1H-pyrazole-5-carboxamido)acetamido)phenyl)-2,4-dimethylpyridine 1-oxide] | 2 | 25 | –
12 | CCc1nocc1C(=O)N[C@H](C(=O)Nc1ccc(-c2c(C)cc[n+]([O-])c2C)cc1)[C@H]1CCCC(F)(F)C1 [Example 30, 3-(4-((S)-2-((S)-3,3-difluorocyclohexyl)-2-(3-ethylisoxazole-4-carboxamido)acetamido)phenyl)-2,4-dimethylpyridine 1-oxide] | 12 | 46 | –
13 | CCn1nccc1C(=O)N[C@H](C(=O)Nc1ccc(-c2c(Cl)cc[n+]([O-])c2C)cc1)C1CCC(F)(F)CC1 (single isomer, unassigned) [Example 13a] | 11 | 16 | –
14 | Cc1c[n+]([O-])cc(C)c1-c1ccc(NC(=O)[C@@H](NC(=O)c2ccc3n2CCN(C)C3)C2CCCCCC2)cc1 [Example 117, (S)-4-(4-(2-cycloheptyl-2-(2-methyl-1,2,3,4-tetrahydropyrrolo[1,2-a]pyrazine-6-carboxamido)acetamido)phenyl)-3,5-dimethylpyridine 1-oxide] | 121 | 161 | –
15 | Cc1cc[n+]([O-])c(C)c1-c1ccc(NC(=O)[C@@H](NC(=O)c2ccnn2C)[C@H]2CC=C(F)CC2)cc1 (single isomer, unassigned) [Example 12a, 3-(4-((S)-2-((R)-4-fluorocyclohex-3-en-1-yl)-2-(1-methyl-1H-pyrazole-5-carboxamido)acetamido)phenyl)-2,4-dimethylpyridine 1-oxide or 3-(4-((S)-2-((S)-4-fluorocyclohex-3-en-1-yl)-2-(1-methyl-1H-pyrazole-5-carboxamido)acetamido)phenyl)-2,4-dimethylpyridine 1-oxide] | 17 | 112 | –
16 | Cc1nocc1C(=O)N[C@H](C(=O)Nc1ccc(-c2c(C(F)(F)F)cc[n+]([O-])c2C)cc1)[C@H]1CCCC(F)(F)C1 [Example 9, 3-(4-((S)-2-((S)-3,3-difluorocyclohexyl)-2-(3-methylisoxazole-4-carboxamido)acetamido)phenyl)-2-methyl-4-(trifluoromethyl)pyridine 1-oxide] | 4 | 60 | –
17 | Cc1c(-c2ccc(NC(=O)[C@@H](NC(=O)c3ccnn3C)C3CCCCC3)nc2)c(Cl)cc[n+]1[O-] [Example 60, (S)-4-chloro-6′-(2-cyclohexyl-2-(1-methyl-1H-pyrazole-5-carboxamido)acetamido)-2-methyl-[3,3′-bipyridine] 1-oxide] | 236 | 123 | –
18 | Cc1c(-c2ccc(NC(=O)C(NC(=O)c3ccnn3C)C3CCCC(F)(F)C3)cc2)c(Cl)cc[n+]1[O-] (centres unmarked) [Example 160, 4-chloro-3-(4-(2-(3,3-difluorocyclohexyl)-2-(1-methyl-1H-pyrazole-5-carboxamido)acetamido)phenyl)-2-methylpyridine 1-oxide] | – | – | IC50 [1, 7]: 52.3 nM; IC50 [2, 8]: 89.5 nM
19 | Cc1c(-c2ccc(NC(=O)[C@@H](NC(=O)c3ccnn3C(C)C)C3CCCCCC3)cc2)c(Cl)cc[n+]1[O-] [Example 48, (S)-4-chloro-3-(4-(2-cycloheptyl-2-(1-isopropyl-1H-pyrazole-5-carboxamido)acetamido)phenyl)-2-methylpyridine 1-oxide] | 1 | 12 | –
20 | CCn1nccc1C(=O)N[C@H](C(=O)Nc1ccc(-c2c(C)cc[n+]([O-])c2C)cc1)C1CCC(F)(F)CC1 [Example 159, (S)-3-(4-(2-(4,4-difluorocyclohexyl)-2-(1-ethyl-1H-pyrazole-5-carboxamido)acetamido)phenyl)-2,4-dimethylpyridine 1-oxide] | – | – | IC50 [1, 7]: 31 nM; IC50 [2, 8]: 100 nM
21 | CC(=O)N1CCn2c(ccc2C(=O)N[C@H](C(=O)Nc2ccc(-c3c(Cl)cc[n+]([O-])c3C)cc2)C2CCCCC2)C1 [Example 199, (S)-3-(4-(2-(2-acetyl-1,2,3,4-tetrahydropyrrolo[1,2-a]pyrazine-6-carboxamido)-2-cyclohexylacetamido)phenyl)-4-chloro-2-methylpyridine 1-oxide] | – | – | IC50 [1, 3]: 11.5 nM; IC50 [2, 4]: 237 nM
22 | Cc1c(-c2ccc(NC(=O)[C@@H](NC(=O)c3ccnn3C)C3CCCCC3)cc2F)c(Cl)cc[n+]1[O-] (single isomer, unassigned) [Example 2a] | 37 | 49 | –
23 | Cc1cc[n+]([O-])c(C)c1-c1ccc(NC(=O)C(NC(=O)c2ccnn2C)C2C=C(F)CCC2)cc1 (centres unmarked) [Example 219, 3-(4-(2-(3-fluorocyclohex-2-en-1-yl)-2-(1-methyl-1H-pyrazole-5-carboxamido)acetamido)phenyl)-2,4-dimethylpyridine 1-oxide] | – | – | IC50 [1, 7]: 142 nM; IC50 [2, 8]: 2290 nM
24 | Cc1cc[n+]([O-])c(C)c1-c1ccc(NC(=O)C(NC(=O)c2ccc3n2CCNC3)C2CC3CC3C2)cc1 [Example 204, 3-(4-((S)-2-((1R,3s,5S)-bicyclo[3.1.0]hexan-3-yl)-2-(1,2,3,4-tetrahydropyrrolo[1,2-a]pyrazine-6-carboxamido)acetamido)phenyl)-2,4-dimethylpyridine 1-oxide] | – | – | IC50 [1, 3]: 95 nM; IC50 [2, 4]: 278 nM
25 | Cc1nscc1C(=O)N[C@H](C(=O)Nc1ccc(-c2c(Cl)cc[n+]([O-])c2C)c(F)c1)C1CCCCC1 [Example 17, 4-chloro-3-(4-((S)-2-cyclohexyl-2-(3-methylisothiazole-4-carboxamido)acetamido)-2-fluorophenyl)-2-methylpyridine 1-oxide] | 18 | 118 | –

Source: patent US12600728B2, “Interleukin-17 inhibitors” (priority 2020, dated 2026)
